Results as given in PubChem BioAssay AID449735 (Southern Research Specialized Biocontainment Screening …, 2010).
The source made the active and inactive calls.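 The calls were made as follows: active = drop in polymyxin IC50 at top compound dose in wild type more than twice that in PhoP-lacking strain; inactive = the rest.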

Tests used:
[1] = polymyxin sensitization of S. Typhimurium, late-stage follow-up, mechanism study for PhoP regulon inhibitor project, WT and phoP- strains, round 3 (AID 449735); details: S. Typhimurium WT vs phoP-, polymyxin IC50 shift, OD600, at 150 µM, stronger effect = higher value
[2] = tested on: S. Typhimurium WT vs phoP-, polymyxin IC50 shift, OD600; experiment: as above
[3] = measured here: WT strain IC50 shift
[4] = measured here: phoP- strain IC50 shift

Structure (SMILES) | polymyxin IC50 shift difference WT - phoP- [1] | polymyxin IC50 shift [1, 3] | polymyxin IC50 shift [1, 4] | IC50 [2] [µM]
S=C(NCCc1ccc(Cl)cc1)Nc1ccncc1 | -0.21 (inactive) | 0.05 | 0.26 | 
O=C(Nc1ccc(Cl)cc1)N1CCCN(Cc2ccc(Br)cc2)C1 | -1.52 (inactive) | 1.77 | 3.29 | 
CCn1cc(C(=O)O)c(=O)c2cc(F)c(N3CCN(C(=S)Nc4ccccc4OC)CC3)cc21 | -0.94 (inactive) | -2.11 | -1.17 | 
O=C(Nc1ccc(Cl)cc1)N1CCCN(Cc2ccccc2Br)C1 | -4.93 (inactive) | -2.84 | 2.09 | 
O=C(Nc1ccc(I)cc1)N1CCCN(Cc2ccccc2F)C1 | -8.3 (inactive) | 9.92 | 18.2 | 
CCn1cc(C(=O)O)c(=O)c2cc(F)c(N3CCN(C(=S)Nc4ccccc4C)CC3)cc21 |  | 15.9 | 3.07 | 30
